Test results reported in patent publication US7495027B2, “3-aryl-4-hydroxyfuranone compounds and the human and animal health use thereof” (Wyeth, priority 2003, dated 2009).
≈ marks a conversion by molar mass, not a printed value. Read-outs that look alike come from different tables or passages of the source.

Legend:
staphylococci = assay: Minimum inhibitory concentration, microdilution broth method, staphylococci; type: cell-based; details: Mueller-Hinton broth, 18-22 hours at 35° C.; for MIC: Staphylococcus aureus
Procedure, shortened: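 MIC by microdilution, NCCLS M7-A5. Media: MH broth (staph, enterococci); MH + 5% lysed horse blood (strep). Strains incl. methicillin-, penicillin- and/or vancomycin-resistant clinical isolates.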

[1] = target: E. coli Enopyruvyl-UPD-N-acetylglucosamine reductase, Mur B (Escherichia coli, UniProt P08373); assay: biochemical; details: (E) E. coli enzyme; for IC50: read-out: MurB IC50 (converted)
[2] = target: T1, S. aureus Uridine-diphosphate-N-acetylmuramoyl-L-alanine: D-glutamate liease, MurD (Staphylococcus aureus, UniProt Q2FZ92); assay: biochemical; details: (S) S. aureus enzyme
T1 sequence (Q2FZ92 1-449): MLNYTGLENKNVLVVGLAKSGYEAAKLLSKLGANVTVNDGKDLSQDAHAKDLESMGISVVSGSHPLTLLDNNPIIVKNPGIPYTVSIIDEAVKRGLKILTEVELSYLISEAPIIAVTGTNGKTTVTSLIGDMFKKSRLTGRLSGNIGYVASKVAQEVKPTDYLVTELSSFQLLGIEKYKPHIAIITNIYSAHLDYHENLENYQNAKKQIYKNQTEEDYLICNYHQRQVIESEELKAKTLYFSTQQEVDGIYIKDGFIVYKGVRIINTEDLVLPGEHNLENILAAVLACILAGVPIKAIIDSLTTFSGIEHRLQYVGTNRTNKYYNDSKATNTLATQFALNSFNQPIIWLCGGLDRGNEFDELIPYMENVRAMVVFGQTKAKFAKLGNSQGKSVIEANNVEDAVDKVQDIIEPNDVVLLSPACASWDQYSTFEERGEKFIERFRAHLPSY
Procedure, shortened: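 Test solutions, 10 mg/mL stocks in DMSO, were brought to 100 μg/mL with 50 mM Tris/HCl (pH 8.5). Their inhibition of MurD, the enzyme of the fourth cell wall biosynthesis step, was measured.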

[3] = target: T2, S. aureus Uridine-diphosphate-N-acetvimuramoyl: L-alanine lipase, MurC (Staphylococcus aureus, UniProt Q2FXJ0); assay: biochemical; details: (S) S. aureus enzyme; for IC50: read-out: MurC IC50 (converted)
T2 sequence (Q2FXJ0 1-437): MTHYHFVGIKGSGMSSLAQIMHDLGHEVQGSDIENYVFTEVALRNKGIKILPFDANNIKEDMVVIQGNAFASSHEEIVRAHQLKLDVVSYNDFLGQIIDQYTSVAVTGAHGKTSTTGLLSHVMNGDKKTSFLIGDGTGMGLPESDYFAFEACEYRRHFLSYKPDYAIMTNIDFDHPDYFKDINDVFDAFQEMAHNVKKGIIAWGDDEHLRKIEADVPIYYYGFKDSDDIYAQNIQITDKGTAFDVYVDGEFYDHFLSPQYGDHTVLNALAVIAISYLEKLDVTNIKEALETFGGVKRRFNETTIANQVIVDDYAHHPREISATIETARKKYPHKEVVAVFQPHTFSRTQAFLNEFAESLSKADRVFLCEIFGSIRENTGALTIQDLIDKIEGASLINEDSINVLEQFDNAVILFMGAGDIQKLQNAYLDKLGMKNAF
Protocol: S. aureus and E. coli Uridine-diphosphate-N-acetvimuramoyl: L-alanine lipase, MurC
Preparation of Enzyme Solution:
A 1 mg/mL stock solution of MurC is prepared in a buffer consisting of 20 mM Tris/HCl (pH 8.5) with 2.5 μM BME. The stock solution is further diluted with the buffer to give a final enzyme concentration of 100 μg/mL for the E. coli stock solution and 70 μg/mL for the S. aureus stock solution.
Preparation of Test Compound Solutions:
All test solutions are prepared in DMSO as 10 mg/mL, then diluted with 50 mM Tris/HCl (pH 8.5) to 100 μg/mL.
Preparation of Stop Solution:
The stop solution is prepared by stirring 1 part 4.2% ammonium molydbate in 4N HCl with 2 parts 0.045% malachite green for 30 min.
In this evaluation, the inhibitory activity of a test compound against MurC, the enzyme which catalyzes the third step of bacterial cell wall bioxynthesis is determined. Experiments are performed by adding 2.5 μl buffer, 2.5 μl 0.5M NH4SO2, 5 μl 2 μM L-Ala, 5 μl enzyme solution and 6.5 μl test compound solution to each well in a 96-well microplate. After a pre-incubation period of 10 mins. at 23° C., 3.75 μl of a 0.75 μM solution of UDP-MurNac is added to each well. Following an incubation period of 10 mins. at 37° C., 210 μl stop solution and 50 μl of a 34% w/v sodium citrate solution are added and color is allowed to develop for 10 mins. at 23° C. (Lanzetta et al., Analytical Biochemistry, 1979, 95) Optical density readings are taken at 660 nm using a Molecular Devices Spectra Max 250 with Soft Max software. Controls are performed using the same procedure and omitting the addition of UDP-MurNac. […]
Using these values the IC50 is determined by linear regression analysis.

[4] = S. aureus GC 1131, read-out: MIC S. aureus GC 1131
[5] = S. aureus GC 4543, read-out: MIC S. aureus GC 4543

E. coli Enopyruvyl-UPD-N-acetylglucosamine reductase, Mur B, sequence (P08373 whole entry): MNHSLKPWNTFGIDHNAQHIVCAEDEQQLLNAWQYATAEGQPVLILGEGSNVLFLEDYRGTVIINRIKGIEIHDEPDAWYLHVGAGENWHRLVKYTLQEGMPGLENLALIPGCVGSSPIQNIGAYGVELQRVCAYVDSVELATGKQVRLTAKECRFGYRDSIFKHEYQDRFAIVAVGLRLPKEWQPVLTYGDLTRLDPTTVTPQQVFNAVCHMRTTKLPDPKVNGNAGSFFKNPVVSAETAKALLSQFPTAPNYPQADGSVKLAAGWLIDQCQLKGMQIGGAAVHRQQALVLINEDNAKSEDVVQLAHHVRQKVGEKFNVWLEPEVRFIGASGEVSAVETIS

For `O=C1O/C(=C\c2cccc(-c3cccc(Cl)c3)c2)C(O)=C1c1cccc(Cl)c1` [Example 134], the MIC (staphylococci; [4]) was > 128 µg/mL, the MIC (staphylococci; [5]) was 1 µg/mL (≈ 2.44 µM) and the “MurB IC50” value [1] was 4 µg/mL. It also gave an IC50 [2] of 19.5 µM and an IC50 [3] of 51.3 µM.

`COc1ccccc1-c1ccc(/C=C2\OC(=O)C(c3cc(Cl)cc(Cl)c3)=C2O)cc1OC` [Example 19] was tested, and the MIC (staphylococci; [4]) was 2 µg/mL (≈ 4.26 µM), the MIC (staphylococci; [5]) was 2 µg/mL (≈ 4.26 µM) and the IC50 [1] was 42.6 µM. For the same molecule, the IC50 [2] was 36.2 µM and the IC50 [3] was 40.5 µM.

For `Cc1cc(/C=C2\OC(=O)C(c3cc(Cl)cc(Cl)c3)=C2O)ccc1-c1ccccc1OS(C)(=O)=O` [Example 39], the “MIC S. aureus GC 1131” value (staphylococci; S. aureus GC 1131) was 2 µg/mL (≈ 3.87 µM), the “MIC S. aureus GC 4543” value (staphylococci; S. aureus GC 4543) was 4 µg/mL (≈ 7.73 µM) and the “MurB IC50” value [1] was 8 µg/mL. The “MurD IC50” value [2] was 15 (S) μg/mL and the “MurC IC50” value [3] was 8 (S) μg/mL.

With `COC(=O)c1ccc(C2=C(O)/C(=C/c3cccc4ccccc34)OC2=O)cc1` [Example 74] the MIC (staphylococci; [4]) was 64 µg/mL (≈ 172 µM), the MIC (staphylococci; [5]) was > 128 µg/mL and the IC50 [1] was 59.1 µM. The IC50 [2] was > 67.1 µM and the IC50 [3] was 48.3 µM.

`O=C1O/C(=C\c2ccc(C(F)(F)F)cc2)C(O)=C1c1ccc(-c2ccccc2)cc1` [R=H, R1=4-(biphenyl), R2=4-CF3—C6H4] showed an MIC (staphylococci; [4]) of 8 µg/mL (≈ 19.6 µM), an MIC (staphylococci; [5]) of 8 µg/mL (≈ 19.6 µM) and an IC50 [1] of 14.7 µM. For the same molecule, the IC50 [2] was > 61.2 µM and the IC50 [3] was 29.4 µM.

For `O=C1O/C(=C\c2ccc(-c3ccc(Cl)cc3)cc2)C(O)=C1c1ccc(Cl)cc1` [R=H, R1=4-Cl—C6H4, R2=4-(4′-Cl-biphenyl)], the MIC (staphylococci; [4]) was 16 µg/mL (≈ 39.1 µM), the MIC (staphylococci; [5]) was 8 µg/mL (≈ 19.5 µM) and the IC50 [1] was 7.33 µM. For the same molecule, the IC50 [2] was 19.5 µM.

Work on `Cc1cc(/C=C2\OC(=O)C(c3cccc(Cl)c3)=C2O)ccc1-c1ccccc1Cl` [Example 30] yielded an MIC (staphylococci; [4]) of 2 µg/mL (≈ 4.72 µM), an MIC (staphylococci; [5]) of 1 µg/mL (≈ 2.36 µM) and an IC50 [1] of 4.72 µM. The IC50 [2] was > 59.1 µM and the IC50 [3] was > 59.1 µM.

In the case of `O=C1O/C(=C\c2cccc3ccccc23)C(O)=C1c1cccc(C=NO)c1` [Example 77], the “MIC S. aureus GC 1131” value (staphylococci; S. aureus GC 1131) is reported as >128 µg/mL, the “MIC S. aureus GC 4543” value (staphylococci; S. aureus GC 4543) is reported as 64 µg/mL (≈ 179 µM) and the “MurB IC50” value [1] is reported as 21 µg/mL. The “MurD IC50” value [2] was >25 (S) μg/mL and the “MurC IC50” value [3] was 15 µg/mL.

`O=C1O/C(=C\c2ccc(N3CCOCC3)c(F)c2)C(O)=C1c1cc(Cl)cc(Cl)c1` [Example 34] was tested, and the “MIC S. aureus GC 1131” value (staphylococci; S. aureus GC 1131) was 32 µg/mL (≈ 73.3 µM), the “MIC S. aureus GC 4543” value (staphylococci; S. aureus GC 4543) was 32 µg/mL (≈ 73.3 µM) and the “MurD IC50” value [2] was >25 (S) μg/mL. For the same molecule, the “MurC IC50” value [3] was 21 (S) μg/mL.

With `O=C1O/C(=C\c2ccc(Cl)cc2)C(O)=C1c1ccc2ccccc2c1` [Example 43] the MIC (staphylococci; [4]) was 8 µg/mL (≈ 22.9 µM), the MIC (staphylococci; [5]) was 8 µg/mL (≈ 22.9 µM) and the IC50 [1] was 17.2 µM. For the same molecule, the IC50 [2] was > 71.7 µM and the IC50 [3] was 60.2 µM.

In the case of `COc1ccc(C=C2OC(=O)C(c3cccc(Cl)c3)=C2O)c2ccccc12` [Example 35], the “MIC S. aureus GC 1131” value (staphylococci; S. aureus GC 1131) is reported as 8 µg/mL (≈ 21.1 µM), the “MIC S. aureus GC 4543” value (staphylococci; S. aureus GC 4543) is reported as 8 µg/mL (≈ 21.1 µM) and the “MurD IC50” value [2] is reported as 17 (S) μg/mL. The “MurC IC50” value [3] was 8 (S) μg/mL.

Work on `Cc1ccccc1-c1ccc(/C=C2\OC(=O)C(c3cccc(Cl)c3)=C2O)cc1C` [Example 28] yielded an MIC (staphylococci; [4]) of 1 µg/mL (≈ 2.48 µM), an MIC (staphylococci; [5]) of 0.5 µg/mL (≈ 1.24 µM) and an IC50 [1] of 7.45 µM. The IC50 [2] was > 62.1 µM and the IC50 [3] was > 62.1 µM.

With `O=C1O/C(=C\c2ccc3ccccc3c2)C(O)=C1c1cccc2ccccc12` [Example 56] the MIC (staphylococci; [4]) was 16 µg/mL (≈ 43.9 µM), the MIC (staphylococci; [5]) was 32 µg/mL (≈ 87.8 µM) and the IC50 [1] was > 68.6 µM. It also gave an IC50 [2] of 52.1 µM and an IC50 [3] of 30.2 µM.

For `O=C1O/C(=C\c2cccc(C(F)(F)F)c2)C(O)=C1c1ccc(-c2ccccc2)c(F)c1` [Example 106], the MIC (staphylococci; [4]) was 2 µg/mL (≈ 4.69 µM), the MIC (staphylococci; [5]) was 2 µg/mL (≈ 4.69 µM) and the “MurB IC50” value [1] was 12 (E) μg/mL. The IC50 [2] was 37.5 µM and the IC50 [3] was 28.1 µM.
